Several values for one entry are separate records, joined by “and”; a condition that tells them apart may be missing. Identical values can stand only once.
System: 855422-203-R-J1-PDC complex spheroid viability
Assay: Anticancer human tumor 855422-203-R-J1-PDC patient-derived bladder carcinoma cell line growth inhibition
Conditions: for viability, T/C: stronger effect = lower value; active = viability on the fitted dose curve at most 10% of control; inactive = the rest
Method in brief: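 Complex spheroids of tumor cells with HUVEC and human MSCs, exposed to iadademstat combined with other agents. Each agent tested in half-log steps from near clinical Cmax (else 10 microM top), DMSO ≤0.25%.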

[1] = curve of first compound, second compound 0.1 µM
[2] = curve of first compound, second compound 0.316 µM
[3] = curve of first compound, second compound 1 µM
[4] = curve of first compound, second compound 3.16 µM
[5] = curve of first compound, second compound 10 µM
[6] = second compound 0.1 µM, first compound 0.0316 µM
[7] = second compound 0.1 µM, first compound 0.1 µM
[8] = second compound 0.316 µM, first compound 0.0316 µM
[9] = second compound 0.316 µM, first compound 0.1 µM
[10] = second compound 1 µM, first compound 0.0316 µM
[11] = second compound 1 µM, first compound 0.1 µM
[12] = second compound 3.16 µM, first compound 0.0316 µM
[13] = second compound 3.16 µM, first compound 0.1 µM
[14] = second compound 10 µM, first compound 0.0316 µM
[15] = second compound 10 µM, first compound 0.1 µM
[16] = second compound 0.1 µM, first compound 0.316 µM
[17] = second compound 0.1 µM, first compound 1 µM
[18] = second compound 0.1 µM, first compound 3.16 µM
[19] = second compound 0.1 µM, first compound 10 µM
[20] = second compound 0.316 µM, first compound 0.316 µM
[21] = second compound 0.316 µM, first compound 1 µM
[22] = second compound 0.316 µM, first compound 3.16 µM
[23] = second compound 0.316 µM, first compound 10 µM
[24] = second compound 1 µM, first compound 0.316 µM
[25] = second compound 1 µM, first compound 1 µM
[26] = second compound 1 µM, first compound 3.16 µM
[27] = second compound 1 µM, first compound 10 µM
[28] = second compound 3.16 µM, first compound 0.316 µM
[29] = second compound 3.16 µM, first compound 1 µM
[30] = second compound 3.16 µM, first compound 3.16 µM
[31] = second compound 3.16 µM, first compound 10 µM
[32] = second compound 10 µM, first compound 0.316 µM
[33] = second compound 10 µM, first compound 1 µM
[34] = second compound 10 µM, first compound 3.16 µM
[35] = second compound 10 µM, first compound 10 µM
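Note: drug exposure lasted 7 days starting on day 3 after seeding.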
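Throughout, for viability, T/C: luminescence viability as percent of DMSO vehicle wells = 100%.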

Cn1ncnc1C1c2n[nH]c(=O)c3cc(F)cc(c23)NC1c1ccc(F)cc1 (stereo not drawn) + NC1CC1c1ccc(-c2cccc(O)c2)cc1
> 100 nM: IC50 [1] | IC50 [2] | IC50 [3] | IC50 [4] | IC50 [5]
inactive: viability, T/C (second compound 0.1 µM, first compound 0.000316 µM) 91.5% | viability, T/C (second compound 0.1 µM, first compound 0.001 µM) 75.1% | viability, T/C (second compound 0.1 µM, first compound 0.00316 µM) 74.4% | viability, T/C (second compound 0.1 µM, first compound 0.01 µM) 77.3% | viability, T/C [6] 80.9% | viability, T/C [7] 86.2% | viability, T/C (second compound 0.316 µM, first compound 0.000316 µM) 89.2% | viability, T/C (second compound 0.316 µM, first compound 0.001 µM) 76.7% | viability, T/C (second compound 0.316 µM, first compound 0.00316 µM) 76.1% | viability, T/C (second compound 0.316 µM, first compound 0.01 µM) 84.2% | viability, T/C [8] 87.6% | viability, T/C [9] 91.9% | viability, T/C (second compound 1 µM, first compound 0.000316 µM) 95.8% | viability, T/C (second compound 1 µM, first compound 0.001 µM) 97.3% | viability, T/C (second compound 1 µM, first compound 0.00316 µM) 96.5% | viability, T/C (second compound 1 µM, first compound 0.01 µM) 102% | viability, T/C [10] 82.7% | viability, T/C [11] 90.5% | viability, T/C (second compound 3.16 µM, first compound 0.000316 µM) 102% | viability, T/C (second compound 3.16 µM, first compound 0.001 µM) 106% | viability, T/C (second compound 3.16 µM, first compound 0.00316 µM) 103% | viability, T/C (second compound 3.16 µM, first compound 0.01 µM) 109% | viability, T/C [12] 94.1% | viability, T/C [13] 97.2% | viability, T/C (second compound 10 µM, first compound 0.000316 µM) 106% | viability, T/C (second compound 10 µM, first compound 0.001 µM) 110% | viability, T/C (second compound 10 µM, first compound 0.00316 µM) 97.6% | viability, T/C (second compound 10 µM, first compound 0.01 µM) 109% | viability, T/C [14] 100% | viability, T/C [15] 102%

CC(C)c1c(-c2ccccc2)nc2c(C#N)c[nH]n2c1=O
> 10000 nM: IC50 (curve of compound)
inactive: viability, T/C (compound 0.0316 µM) 98.3% and 101% | viability, T/C (compound 0.1 µM) 104% and 106% | viability, T/C (compound 0.316 µM) 96.1% and 107% | viability, T/C (compound 1 µM) 104% and 99.9% | viability, T/C (compound 3.16 µM) 94.5% and 99.2% | viability, T/C (compound 10 µM) 95.4% and 90.9%

O=C(C=Cc1cccc(S(=O)(=O)Nc2ccccc2)c1)NO + NC1CC1c1ccc(-c2cccc(O)c2)cc1
448 nM: IC50 [2]
446 nM: IC50 [1]
336 nM: IC50 [5]
404 nM: IC50 [3]
466 nM: IC50 [4]
active: viability, T/C (second compound 0.1 µM, first compound 3 µM) 0.43% | viability, T/C (second compound 0.316 µM, first compound 3 µM) 0.31% | viability, T/C (second compound 1 µM, first compound 3 µM) 0.29% | viability, T/C (second compound 3.16 µM, first compound 3 µM) 0.24% | viability, T/C (second compound 10 µM, first compound 0.949 µM) 10.9% | viability, T/C (second compound 10 µM, first compound 3 µM) 0.27%
inactive: viability, T/C (second compound 0.1 µM, first compound 0.00949 µM) 102% | viability, T/C (second compound 0.1 µM, first compound 0.03 µM) 109% | viability, T/C (second compound 0.1 µM, first compound 0.0949 µM) 106% | viability, T/C (second compound 0.1 µM, first compound 0.3 µM) 66.2% | viability, T/C (second compound 0.1 µM, first compound 0.949 µM) 17.4% | viability, T/C (second compound 0.316 µM, first compound 0.00949 µM) 103% | viability, T/C (second compound 0.316 µM, first compound 0.03 µM) 112% | viability, T/C (second compound 0.316 µM, first compound 0.0949 µM) 122% | viability, T/C (second compound 0.316 µM, first compound 0.3 µM) 66.4% | viability, T/C (second compound 0.316 µM, first compound 0.949 µM) 19.4% | viability, T/C (second compound 1 µM, first compound 0.00949 µM) 100% | viability, T/C (second compound 1 µM, first compound 0.03 µM) 116% | viability, T/C (second compound 1 µM, first compound 0.0949 µM) 114% | viability, T/C (second compound 1 µM, first compound 0.3 µM) 60.4% | viability, T/C (second compound 1 µM, first compound 0.949 µM) 18.3% | viability, T/C (second compound 3.16 µM, first compound 0.00949 µM) 94.5% | viability, T/C (second compound 3.16 µM, first compound 0.03 µM) 105% | viability, T/C (second compound 3.16 µM, first compound 0.0949 µM) 118% | viability, T/C (second compound 3.16 µM, first compound 0.3 µM) 69.8% | viability, T/C (second compound 3.16 µM, first compound 0.949 µM) 17.1% | viability, T/C (second compound 10 µM, first compound 0.00949 µM) 97.6% | viability, T/C (second compound 10 µM, first compound 0.03 µM) 108% | viability, T/C (second compound 10 µM, first compound 0.0949 µM) 106% | viability, T/C (second compound 10 µM, first compound 0.3 µM) 54%

COc1ccc([C@@H](O)c2cc(-c3ncnc4cc(N5CCOCC5)ccc34)c(F)cc2Cl)nn1 + NC1CCC(NC2CC2c2ccccc2)CC1
3750 nM: IC50 [2]
3980 nM: IC50 [1]
3120 nM: IC50 [4]
3230 nM: IC50 [5]
inactive: viability, T/C [6] 83.7% | viability, T/C [7] 88.8% | viability, T/C [16] 76.3% | viability, T/C [17] 73.8% | viability, T/C [18] 53.1% | viability, T/C [19] 34.5% | viability, T/C [8] 88.5% | viability, T/C [9] 89.4% | viability, T/C [20] 73.4% | viability, T/C [21] 69.3% | viability, T/C [22] 53% | viability, T/C [23] 33.5% | viability, T/C [10] 87.1% | viability, T/C [11] 84.7% | viability, T/C [24] 73.3% | viability, T/C [25] 68% | viability, T/C [26] 53% | viability, T/C [27] 30.8% | viability, T/C [12] 85.2% | viability, T/C [13] 78.2% | viability, T/C [28] 75.1% | viability, T/C [29] 68.2% | viability, T/C [30] 48.4% | viability, T/C [31] 31.3% | viability, T/C [14] 76.9% | viability, T/C [15] 80% | viability, T/C [32] 71.7% | viability, T/C [33] 64.7% | viability, T/C [34] 50.6% | viability, T/C [35] 32.8%
3580 nM: IC50 [3]

CC(C)c1c(-c2ccccc2)nc2c(C#N)c[nH]n2c1=O + NC1CCC(NC2CC2c2ccccc2)CC1
> 10000 nM: IC50 [1] | IC50 [2] | IC50 [3] | IC50 [4] | IC50 [5]
inactive: viability, T/C [6] 82.4% | viability, T/C [7] 88% | viability, T/C [16] 92.9% | viability, T/C [17] 87.7% | viability, T/C [18] 85.3% | viability, T/C [19] 74.7% | viability, T/C [8] 93.2% | viability, T/C [9] 85.3% | viability, T/C [20] 93.4% | viability, T/C [21] 83.3% | viability, T/C [22] 77.1% | viability, T/C [23] 74% | viability, T/C [10] 88.6% | viability, T/C [11] 92.2% | viability, T/C [24] 85.9% | viability, T/C [25] 86.7% | viability, T/C [26] 80.1% | viability, T/C [27] 75.3% | viability, T/C [12] 89.1% | viability, T/C [13] 80.4% | viability, T/C [28] 81.1% | viability, T/C [29] 77.1% | viability, T/C [30] 79.9% | viability, T/C [31] 80.2% | viability, T/C [14] 82.9% | viability, T/C [15] 91.7% | viability, T/C [32] 84.4% | viability, T/C [33] 74.6% | viability, T/C [34] 69.6% | viability, T/C [35] 73.4%

Nc1ncn(C2CC(O)C(CO)O2)c(=O)n1 (stereo not drawn)
> 1000 nM: IC50 (curve of compound)
inactive: viability, T/C (compound 0.00316 µM) 101% and 96.5% | viability, T/C (compound 0.01 µM) 92.3% and 88.8% | viability, T/C (compound 0.0316 µM) 81.1% and 89% | viability, T/C (compound 0.1 µM) 86.6% and 94% | viability, T/C (compound 0.316 µM) 80.8% and 94.5% | viability, T/C (compound 1 µM) 78% and 87%

COc1cc(C2c3cc4c(cc3C(OC3OC5COC(C)OC5C(O)C3O)C3COC(=O)C23)OCO4)cc(OC)c1O (stereo not drawn)
inactive: viability, T/C (compound 0.00949 µM) 88.6% and 97.5% | viability, T/C (compound 0.03 µM) 79.6% and 102% | viability, T/C (compound 0.0949 µM) 61% and 58.4% | viability, T/C (compound 0.3 µM) 28.3% and 31.1% | viability, T/C (compound 0.949 µM) 13.5% and 15.1%
138 nM and 148 nM: IC50 (curve of compound)
6.36% and 6.7%: viability, T/C (compound 3 µM)

O=C(C=Cn1cnc(-c2cc(C(F)(F)F)cc(C(F)(F)F)c2)n1)NNc1cnccn1
37.5 nM and 29.4 nM: IC50 (curve of compound)
inactive: viability, T/C (compound 0.00316 µM) 124% and 114% | viability, T/C (compound 0.01 µM) 125% and 86.4% | viability, T/C (compound 0.0316 µM) 52.5% and 44.8% | viability, T/C (compound 0.1 µM) 43.6% and 32.7% | viability, T/C (compound 0.316 µM) 38.7% and 27.1% | viability, T/C (compound 1 µM) 25% and 18.6%
